Entries after “also recorded” stand apart in the source; their conditions may differ.
Legend:
[1] = Femtosecond to microsecond transient absorption spectroscopy of the thiouracil series (intersystem crossing, triplet yield, triplet decay, triplet-triplet extinction)
Text: Briefly, 800 nm, 100 fs fundamental pulses were generated with a Ti-Sapphire regenerative amplifier laser system (Libra-HE, Coherent, Inc.: 4.0 W, 1 kHz). The fundamental beam was used to produce pump wavelengths of 320, 335, and 350 nm via an optical parametric amplifier (TOPAS, Quantronix/Light Conversion). Unwanted wavelengths were removed from the pump beam using a reflective wavelength filter and a Glan-Taylor polarizer. A fraction of the remaining fundamental beam was focused into a continuously moving CaF2 plate (2 mm thick) to generate broadband white light probe pulses (320-700 nm). The intensity of the excitation beam was attenuated to 1 mJ per pulse at the sample position. The polarization of the pump beam was randomized before being focused into the sample to overlap with the white light continuum probe at a 3:1 beam diameter ratio. Pump-probe experiments were collected using a Helios spectrometer (Ultrafast Systems, LLC) and a home-made data acquisition software (LabView, National Instruments, Inc.).
Solutions of the 2tUra, 4tUra, and 2,4dtUra derivatives were prepared in aqueous phosphate-buffered saline at pH 7.4. […] Solutions were investigated in 2 mm optical path length quartz cells and the irradiated volume was continuously refreshed by stirring with a Teflon-coated magnetic stir bar. Contributions to the transient data from any putative photoproduct formation were prevented by replacing the solution with fresh stock solution every 5 scans, or before 6% sample degradation (as monitored by a decrease in the steady-state absorbance of the lowest-energy absorption band). The UVA excitation wavelength used was varied depending on the absorption spectrum of the specific thiouracil derivative investigated. For 2tUra, an excitation wavelength of 320 nm was used, whereas 2,4dtUra was excited at 335 and 350 nm, and 4tUra was excited at all three of these UVA wavelengths.
Decay of the triplet state of 4tUra and 2,4dtUra to the ground state was monitored using the same excitation and detection setups but probing with an electronically triggered broadband white light source (Eos, Ultrafast Systems, LLC) that has been conveniently integrated into the Helios spectrometer. This probe source has a spectral window from B375 to 800 nm, a time resolution of about 400 ps, and a temporal window of up to 120 ms. […] Data were collected with the solutions under a constant nitrogen flow, and exciting at 350 nm with 3 mJ per pulse for 10 min, corresponding to less than 5% degradation.
For each data set, between 50 and 100 traces were selected across the entire range of probe wavelengths and globally analyzed in Igor Pro 6.32A (WaveMetrics, Inc.). […] 83 The uncertainties reported for the triplet population lifetimes are twice the standard deviation from the average fitting of at least three independent datasets (i.e., recorded on three different days). Triplet-triplet absorption spectra were extracted from the global fitting analysis.

[2] = Estimated photosensitization depth into tissue from molar absorptivity cutoff and penetration depth of light
Text: FIG. 13 illustrates a plot showing molar absorptivity spectra of 4tUra and 2,4dtUra overlaid with the function of the wavelength-dependent penetration depth of light into unpigmented tissue. The ε cutoff is defined by the molar absorptivity of 4tUra at 365 nm; the excitation wavelength typically used in its photosensitization applications.
Importantly, many of the current applications employing 4tUra and other UVA photosensitizers (e.g. psoralen derivatives) use radiation at 365 nm as the excitation source. The use of longer UVA wavelengths reduces direct excitation of other biomolecules, thereby increasing photosensitization efficiency and minimizing unwanted side reactions. However, the requirement of using relatively high concentrations of the sensitizer and/or long irradiation times are two major drawbacks in the current use of 4tUra in photocrosslinking studies as well as in PUVA (psoralen+UVA) photochemotherapies. […] More importantly, 2,4dtUra enables the use of lower-energy excitation wavelengths, as long as 395 nm (see FIG. 13), considering a molar absorptivity cutoff criterion equal to that currently used for 4tUra (see ESI† for a more thorough justification of this cutoff criterion). In other words, the use of 2,4dtUra enables excitation at 395 nm while maintaining the same absorption efficiency and photoreactivity as that of 4tUra at 365 nm. […]

[3] = cited from earlier work
[4] = tested on: adenosine 5′-monophosphate (5′-AMP); assay: Photoreactivity with adenosine 5′-monophosphate upon 365 nm irradiation in N2-saturated buffer
Method: Aqueous phosphate-buffered saline solutions, pH 7.4, containing either 4tUra or 2,4dtUra were prepared with and without 5′-AMP and loaded into 1×1 cm septum-top quartz cuvettes. The concentrations of the thiouracil derivatives and 5′-AMP were […], respectively. These concentrations were chosen in order to favor the bimolecular photoreaction between the thiouracil derivative and 50-AMP, while simultaneously maintaining the absorbance of the solutions within the linear dynamic range limit of the UV-visible spectrophotometer used. All solutions were purged with ultrapure nitrogen for 30 min and kept under constant nitrogen flow throughout the irradiation period. An optical parametric amplifier (TOPAS, Quantronix/Light Conversion) pumped by our Libra laser system (described above) was used for monochromatic (±1 nm) irradiation of the samples. […] Absorbance changes in the thiouracil solutions, with and without 5′-AMP, were monitored periodically using UV-visible spectroscopy (Cary 100 Bio) during irradiation at 365 nm for up to 90 min and while stored in the dark for up to three and a half days.
In order to scrutinize the light-induced reactivity of these sensitizers toward biomolecules, aqueous phosphate-buffered saline solutions of either 4tUra or 2,4dtUra were prepared in the presence of the RNA monomer adenosine 5′-monophosphate (5′-AMP) at a 1:5 molar ratio. […] The experimental conditions were chosen in order to facilitate the extraction of relative photoreaction rates from the changes in the steady-state absorption spectra with irradiation time. […]

[5] = Steady-state molar absorptivity spectra, thiouracil series; assay type: physicochemical; settings: 380 to 400 nm; based on molar absorptivity spectra
Method: Steady-state absorption spectra were measured using a Cary 100 Bio spectrometer. All absorption spectra were background corrected by subtracting the absorption of the neat solvent. Molar absorptivity coefficients were determined from the absorption spectra of serial dilutions of stock solutions with known concentrations.
An important property in the characterization of the photosensitizing potential of the thiouracil series is the determination of their ground-state molar absorptivity spectra. […] The maximum of the lowest-energy absorption band is shifted considerably further to the red (60 nm, 6734 cm^−1) upon sulfur substitution of the oxygen atom at the C4 position compared to when the substitution is made at the C2 position. […] In fact, based on the molar absorptivity spectra, the absorption efficiency of 2,4dtUra at nearvisible wavelengths (380 to 400 nm) is about 27-fold greater than that of 4tUra (see ESI† for details). The ability of these thiouracil derivatives to absorb longer wavelengths of light than uracil facilitates their selective excitation over the canonical DNA and RNA nucleobases. This photophysical property is essential for their prospective use in in vitro and in vivo photosensitizing applications.

[6] = Singlet oxygen quantum yield by phosphorescence at 1270 nm, thiouracil series; assay type: physicochemical
Method: Solutions of 4tUra, 2,4dtUra, and the singlet oxygen standard (phenalenone; ΦΔ=0.98) were prepared in acetonitrile, each with an absorbance of 0.3 at 355 nm in a 1×1 cm quartz cuvette. The solutions were purged with oxygen for 30 min, followed by the determination of quantum yields from back-toback measurements of the singlet oxygen phosphorescence intensity at 1270 nm. The O2-saturated solutions were excited at 355 nm (Spectra Physics GCR-150-30: 7 ns pulse width) and the phosphorescence at 1270 nm was detected with a NIR sensitive photomultiplier tube (H10330A-45, Hamamatsu).
The singlet oxygen (^1O2) quantum yields of 4tUra and 2,4dtUra were measured by monitoring the characteristic phosphorescence of ^1O2 at 1270 nm with nanosecond time resolution.

triplet-triplet extinction coefficient ([1]; at 600 nm, singlet depletion method): 2500 ± 600 M⁻¹ cm⁻¹
absorption efficiency at near-visible wavelengths relative to 4tUra [5]: about 27 fold
Structure (SMILES): Sc1ccnc(S)n1 [2,4dtUra, 2,4-dithiouracil]
increase in rate of intersystem crossing going from 2tUra [1]: 1.6 fold
τISC intersystem crossing lifetime ([1]; aqueous phosphate-buffered saline solution, pH 7.4): 220±40 fs
κT triplet-state decay rate ([1]; aqueous phosphate-buffered saline solution, pH 7.4, 24 mM solutions, nitrogen-purged, 350 nm excitation): 4.3 ± 0.9 10^6 s^−1
intersystem crossing lifetime ([1]; aqueous phosphate-buffered saline, pH 5.4): 210±50 fs
longest excitation wavelength at molar absorptivity cutoff equal to that of 4tUra at 365 nm [2]: ≤ 395 nm
pKa [3]: 7.4
photoreaction rate with 5′-AMP relative to 4tUra ([4]; 365 nm, same concentrations of reactants): approximately three times faster; also recorded: threefold greater; also recorded: threefold higher
photoreaction rate ([4]; with 5′-AMP, 1:5 molar ratio (24 and 120 mM), 365 nm irradiation, N2-saturated aqueous buffer pH 7.4): (1.2±0.2)×10^−9 M s^−1
ΦΔ singlet oxygen quantum yield ([6]; O2-saturated acetonitrile, 355 nm excitation, phenalenone standard): 0.49±0.02
1O2 yield relative to uracil ([6]; excited to lowest-energy absorption band): 3.3 fold
1O2 yield ([6]; following UVA excitation): ca. 50%
